Experimental findings from patent publication US20240174693A1, “SOMATOSTATIN RECEPTOR SUBTYPE 4 (SSTR4) AGONISTS AND THEIR APPLICATIONS” (Humanwell Pharmaceutical US, priority 2022, published 2024) are described below.

The target of one series is T1, CYP3A4 (Homo sapiens, UniProt P08684).
T1 construct: from tissue; host or cells: liver microsomes (HLM)
The experiment in a line: CYP inhibition in HLM, CYP3A4. It counts as in vitro ADME. Particulars: read-out: CYP inhibition (IC50 um) 3A. The procedure:
(§1) 0.1 M potassium phosphate buffer (K-buffer), pH 7.4 was preheated. K-buffer was prepared by mixing 9.5 mL Stock A into 40.5 mL Stock B. The total volume was brought to 500 mL with Milli-Q water. The buffer was titrated with KOH or H3PO4 to pH 7.4. Stock A (1 M monobasic potassium phosphate) was prepared by adding 136.5 g of monobasic potassium phosphate into 1 L of Milli-Q water. Stock B (1 M dibasic potassium phosphate) was prepared by adding 174.2 g of dibasic potassium phosphate in 1 L of Milli-Q water.
(§2) Serial dilution for test compound and reference inhibitors (400×) was prepared in a 96-well plate. 8 μL of 10 mM test compounds was transferred to 12 μL of ACN. Inhibitor spiking solution was prepared for CYP1A2, CYP2C9 and CYP2D6 in cocktail by adding 12 μL of 1 mM α-Naphthoflavon, 10 μL of 40 mM Sulfaphenazole, 10 μL of 10 mM Quinidine, and 8 μL of DMSO. Individual inhibitor spiking solution for CYP3A4 and CYP2C19 was prepared by adding 8 μL of DMSO stock to 12 μL of ACN. 1:3 serial dilutions were performed in DMSO:ACN mixture (v/v: 40:60).
(§3) NADPH cofactor was prepared by dissolving 66.7 mg NADPH in 10 mL 0.1 M K-buffer, pH7.4. 4×substrate (2 mL for each isoform) was prepared. HLM was added were required on ice. 0.2 mg/mL HLM solution was prepared using 10 μL of 20 mg/mL to 990 μL of 0.1 M K-buffer on ice. 400 μL of 0.2 mg/mL HLM were added to the assay wells and then 2 μL of 400×test compound set were added into the designated wells on ice. 200 μL of 0.2 mg/mL HLM was added to the assay wells and followed by 1 μL of serially diluted reference inhibtor solution into the designated wells on ice. The following solutions were added in duplicated in a 96-well plate on ice: 30 μL of 2×test compound and reference compound in 0.2 mg/mL HLM solution and 15 μL of 4×substrate solution. The 96-well assay plate and NADPH solution were pre-incubated at 37° C. for 5 minutes. 15 μL of pre-warmed 8 mM NADPH solution was added to into the assay plates to initiate the reaction. The assay plate was incubated at 37° C. 5 mins, 10 mins, and 45 mins. […]

Another series deals with T2, CYP2C19 (Homo sapiens, UniProt P33261).
T2 construct: from tissue; host or cells: liver microsomes (HLM)
T2 sequence (P33261 whole entry): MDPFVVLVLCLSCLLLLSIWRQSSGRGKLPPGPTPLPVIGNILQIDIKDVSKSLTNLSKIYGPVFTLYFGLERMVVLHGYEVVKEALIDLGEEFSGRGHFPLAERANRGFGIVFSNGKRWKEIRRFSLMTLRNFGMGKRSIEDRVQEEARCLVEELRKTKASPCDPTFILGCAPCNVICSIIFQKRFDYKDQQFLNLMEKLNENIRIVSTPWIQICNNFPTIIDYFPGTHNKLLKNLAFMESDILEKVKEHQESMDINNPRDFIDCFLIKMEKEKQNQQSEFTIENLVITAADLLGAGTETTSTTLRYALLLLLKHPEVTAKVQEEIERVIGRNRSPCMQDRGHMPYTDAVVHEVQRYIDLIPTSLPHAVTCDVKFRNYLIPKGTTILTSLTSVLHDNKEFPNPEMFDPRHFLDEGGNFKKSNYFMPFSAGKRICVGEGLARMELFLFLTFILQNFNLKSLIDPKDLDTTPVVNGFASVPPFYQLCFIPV
The experiment in a line: CYP inhibition in HLM, CYP2C19. It counts as in vitro ADME. As to conditions: read-out: CYP inhibition (IC50 um) 2C19. The procedure: as §1, §2, §3

The nature of the next series: in vitro. As to conditions: rat, hepatocytes.
For another series, the target named is T3, CYP1A2 (Homo sapiens, UniProt P05177).
T3 construct: from tissue; host or cells: liver microsomes (HLM)
T3 sequence (P05177 1-516): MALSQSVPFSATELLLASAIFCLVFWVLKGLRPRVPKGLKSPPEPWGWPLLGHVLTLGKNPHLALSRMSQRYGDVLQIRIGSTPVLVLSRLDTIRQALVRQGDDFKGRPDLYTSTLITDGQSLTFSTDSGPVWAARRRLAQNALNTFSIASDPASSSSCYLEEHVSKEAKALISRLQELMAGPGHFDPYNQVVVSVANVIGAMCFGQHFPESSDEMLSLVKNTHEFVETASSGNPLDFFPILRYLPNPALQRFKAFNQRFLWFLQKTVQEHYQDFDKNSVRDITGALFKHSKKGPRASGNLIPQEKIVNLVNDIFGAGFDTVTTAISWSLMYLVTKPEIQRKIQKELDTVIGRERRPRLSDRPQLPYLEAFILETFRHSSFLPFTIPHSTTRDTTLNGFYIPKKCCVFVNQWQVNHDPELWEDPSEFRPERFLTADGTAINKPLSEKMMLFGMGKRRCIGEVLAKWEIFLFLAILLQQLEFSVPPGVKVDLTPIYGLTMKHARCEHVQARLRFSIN
The experiment in a line: CYP inhibition in HLM, CYP1A2. Format: in vitro ADME. Particulars: read-out: CYP inhibition (IC50 um) 1A2. The procedure:
as §1, §2, §3

Series [1] in a line: Chemical stability in buffer. Format: physicochemical. Particulars: PBS(Ph 7.4) 10 um, 37° C.; read-out: Chemical Stability T½. The procedure: 1 mM test compound spiking solution (spiking solution A) was prepared by adding 10 μL of 10 mM a test compound stock solution to 90 μL of DMSO. 396 μL of buffer were added into tubes designated for different time points. The samples were pre-warmed at 37° C. for 10 minutes. 4 μL of spiking solution A was added into the wells containing 396 μL of buffer that were designated as 0 min, 15 min, 45 min, or 60 min. The timer was started after the addition of the spiking solution. At each time point, 1200 μL of acetonitrile (ACN) containing an internal standard was added to the tubes. The samples were centrifuged at 10,000 rpm for 5 minutes and 100 μL of the supernatant was removed and analyzed by for LC-MS/MS analysis.

Another series deals with SD rats. The experiment in a line: SD rat carrageenan acute inflammation model. It counts as in vivo. As to conditions: for Changes in Foot Swelling Rate (Mean ± SEM) / Foot Swelling Degrees (Mean ± SEM): SD rat carrageenan. The procedure: Using an electronic caliper for accuracy, the thickness of the rat's footpad was measured. Rats were then restrained, and 100 μl of 1% carrageenan was subcutaneously injected into the right hind footpad to induce inflammation, thereby establishing an acute inflammation model using carrageenan. Each compound was administered in advance according to the respective dosing time points. The swelling of the rat's foot was measured at various time points: before modeling (0 h) and after modeling (2, 4, 7 h). A comparison was made between footpad swelling before and after modeling. […] The results of the carrageenan-induced acute inflammation model experiment are depicted in FIG. 1.

For a further series, the target named is hERG potassium channel (Homo sapiens, UniProt Q12809). Description: in vitro. Particulars: hERG Current Inhibition Rate (%) Mean.
hERG potassium channel, sequence (Q12809 whole entry): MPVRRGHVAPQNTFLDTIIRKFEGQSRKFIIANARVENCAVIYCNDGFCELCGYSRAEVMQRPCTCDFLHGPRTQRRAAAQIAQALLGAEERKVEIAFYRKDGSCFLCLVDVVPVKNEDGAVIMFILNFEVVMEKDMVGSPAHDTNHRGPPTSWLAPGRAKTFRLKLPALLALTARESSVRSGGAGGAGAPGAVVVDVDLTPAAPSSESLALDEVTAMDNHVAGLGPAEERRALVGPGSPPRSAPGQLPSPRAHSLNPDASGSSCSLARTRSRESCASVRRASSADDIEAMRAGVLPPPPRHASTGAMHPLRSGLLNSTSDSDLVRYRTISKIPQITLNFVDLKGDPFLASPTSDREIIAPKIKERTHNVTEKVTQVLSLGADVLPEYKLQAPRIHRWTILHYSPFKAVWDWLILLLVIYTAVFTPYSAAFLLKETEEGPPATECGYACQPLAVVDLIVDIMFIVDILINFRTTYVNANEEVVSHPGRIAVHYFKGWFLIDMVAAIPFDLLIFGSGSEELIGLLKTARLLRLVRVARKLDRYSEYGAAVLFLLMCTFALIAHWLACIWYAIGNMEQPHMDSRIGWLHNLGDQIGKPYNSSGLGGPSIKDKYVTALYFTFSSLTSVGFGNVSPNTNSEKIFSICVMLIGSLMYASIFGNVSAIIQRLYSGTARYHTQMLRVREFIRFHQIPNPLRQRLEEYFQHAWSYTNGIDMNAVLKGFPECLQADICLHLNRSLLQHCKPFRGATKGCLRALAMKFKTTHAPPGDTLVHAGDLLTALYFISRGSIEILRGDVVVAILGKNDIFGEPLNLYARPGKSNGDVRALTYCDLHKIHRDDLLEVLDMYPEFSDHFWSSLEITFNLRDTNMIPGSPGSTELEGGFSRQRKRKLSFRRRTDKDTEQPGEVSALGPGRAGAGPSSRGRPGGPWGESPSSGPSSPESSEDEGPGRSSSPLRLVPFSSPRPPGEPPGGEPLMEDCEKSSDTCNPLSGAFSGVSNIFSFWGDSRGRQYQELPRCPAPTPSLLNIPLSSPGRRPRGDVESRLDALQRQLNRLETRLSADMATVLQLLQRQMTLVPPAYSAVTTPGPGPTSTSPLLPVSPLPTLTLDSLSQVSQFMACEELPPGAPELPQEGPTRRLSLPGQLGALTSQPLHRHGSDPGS
The next series addresses T4, SSTR4 (Homo sapiens, UniProt P31391).
T4 construct: host or cells: HEK293/Gα15/SSTR4
Description: FLIPR assay for agonists, HEK293/Gα15/SSTR4 cells. It counts as cell-based. Particulars: read-out: SSTR4 Agonist Activity in FLIPR Assay EC50.

Molecules are shown by their SMILES.

T1 sequence (P08684 whole entry): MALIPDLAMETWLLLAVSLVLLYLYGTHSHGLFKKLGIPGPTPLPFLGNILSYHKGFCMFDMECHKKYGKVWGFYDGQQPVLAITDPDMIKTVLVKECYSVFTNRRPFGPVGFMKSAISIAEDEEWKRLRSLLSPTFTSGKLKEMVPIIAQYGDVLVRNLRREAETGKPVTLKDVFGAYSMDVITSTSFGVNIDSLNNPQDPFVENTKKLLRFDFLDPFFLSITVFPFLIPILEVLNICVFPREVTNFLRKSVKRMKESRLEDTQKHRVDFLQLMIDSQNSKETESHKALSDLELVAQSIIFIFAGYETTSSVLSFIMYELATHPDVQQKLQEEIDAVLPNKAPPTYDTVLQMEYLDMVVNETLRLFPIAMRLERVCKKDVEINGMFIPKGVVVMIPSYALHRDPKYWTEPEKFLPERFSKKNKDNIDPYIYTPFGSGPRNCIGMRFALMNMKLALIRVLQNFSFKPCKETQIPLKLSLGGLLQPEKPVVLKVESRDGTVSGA
T4 sequence (P31391 whole entry): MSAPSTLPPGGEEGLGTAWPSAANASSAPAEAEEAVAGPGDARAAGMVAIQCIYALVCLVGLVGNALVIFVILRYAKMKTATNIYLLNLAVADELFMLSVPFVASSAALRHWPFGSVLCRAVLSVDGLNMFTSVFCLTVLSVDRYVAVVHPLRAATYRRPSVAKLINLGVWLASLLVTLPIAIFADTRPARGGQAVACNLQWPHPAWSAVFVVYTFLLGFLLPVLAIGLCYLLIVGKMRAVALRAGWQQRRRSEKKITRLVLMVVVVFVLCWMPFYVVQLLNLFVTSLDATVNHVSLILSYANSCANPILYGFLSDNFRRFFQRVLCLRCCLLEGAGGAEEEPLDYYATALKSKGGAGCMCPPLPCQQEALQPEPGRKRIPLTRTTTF
Description for SSTR4: The study was carried out at HD Biosciences (Shanghai, China) according to the following steps.
Step 1: Test compounds were diluted to a 400×stock solution in DMSO in a 384-well plate.
Step 2: 1 μL of the compound solution was transferred from Step 1 to 79 μL of assay buffer, creating a 5×working solution in the 384-well plate using the Bravo method.
Step 3: HEK293/Gα15/SSTR1-5 cells were cultured in DMEM medium (10% FBS).
Step 4: When cells reached 80% confluence, the cells were separated using 0.25% trypsin-EDTA.
Step 5: The cell density was measured and the cells diluted to 1×10^6/mL using DMEM (10% FBS).
Step 6: 30 μL of cells were dispensed into each well of a Matrigel-coated 384-well plate (Corning 3764#) using a multi-channel pipette (30,000 cells per well) and cultured for 20-24 hours at 37° C. and 5% CO2.
Step 7: 10 μL of dye was added to each well in the cell plate prepared in Step 6.
Step 8: The dye and cells were incubated in the dark at 37° C. and 5% CO2 for 1 hour.
Step 9: After 1 hour, the FLIPR program was loaded, the pipette tips placed cell plate and compound plate (from Step 2) into the machine, and the run button was pressed. The program added 10 μL to 40 μL to the cell plate. FLIPR was used to read the plate at room temperature according to the specified settings and the data was saved.

With `CC(C)(NC(=O)[C@H]1[C@@H]2CNC[C@H]1C2)c1ncc2c(Cl)cccn12` [Compound 7, (1R,5S,6r)-N-(2-(8-chloroimidazo[1,5-a]pyridin-3-yl)propan-2-yl)-3-azabicyclo[3.1.1]heptane-6-carboxamide], the IC50 at CYP3A4, on CYP2C19 and at CYP1A2 was more than 10 µM throughout. This molecule also had a CLint scaled at 1 μM in “in vitro” of 5.4 mL/min/kg. This molecule had a half-life at 1 μM in “in vitro” of 10 h.

Consider `CC(C)(NC(=O)[C@H]1[C@@H]2CNC[C@H]1C2)c1ncc2c(Br)cccn12` [Compound 8, (1R,5S,6r)-N-(2-(8-bromoimidazo[1,5-a]pyridin-3-yl)propan-2-yl)-3-azabicyclo[3.1.1]heptane-6-carboxamide], for which the half-life at 10 μM in series [1] was found to be 81.3 h. Further, the IC50 on CYP3A4 was more than 10 µM. For the same molecule, at CYP2C19, the IC50 is more than 10 µM. For the same molecule, in the series “in vitro”, the CLint scaled at 1 μM was found to be 6.01 mL/min/kg and the half-life at 1 μM was found to be 9 h. In the series with SD rats (0 h (before modeling)), the “Changes in Foot Swelling Rate (Mean ± SEM)” value (shortened to “Changes … (Mean ± SEM)”) was determined as 0% and the “Foot Swelling Degrees (Mean ± SEM)” value stood at 4.02 ± 0.09 mm. Also, in the series with SD rats (2 h after modeling), the “Changes … (Mean ± SEM)” value was 36.28 ± 5.75% and the “Foot Swelling Degrees (Mean ± SEM)” value is listed as 5.51 ± 0.13 mm. Moreover, in the series with SD rats (4 h after modeling), the “Changes … (Mean ± SEM)” value worked out at 42.25 ± 2.63% and the “Foot Swelling Degrees (Mean ± SEM)” value was 5.78 ± 0.05 mm. For the same molecule, in the series with SD rats (7 h after modeling), the “Changes … (Mean ± SEM)” value came to 34.30 ± 4.17% and the “Foot Swelling Degrees (Mean ± SEM)” value amounted to 5.44 ± 0.11 mm. For the same molecule, the “Anti-inflammatory effect in carrageenan model” value with SD rats (single subcutaneous injection of 30 mg/kg, SD rats) is on record as “demonstrated anti-inflammatory tendencies”. On hERG potassium channel, the inhibition at 0.3 µM was -3.49%, the inhibition at 1 µM is -3.67%, the inhibition at 3 µM is -2.44% and the inhibition at 10 µM was -1.66%. The inhibition at 30 µM at hERG potassium channel was -0.15%. The EC50 at SSTR4 was 0.00333 µM. Moreover, the IC50 at CYP1A2 is more than 10 µM.

Turning to `CC(C)(NC(=O)[C@H]1[C@@H]2CNC[C@H]1C2)c1nc(C2CC2)c2ccccn12` [Compound 9, (1R,5S,6r)-N-(2-(1-cyclopropylimidazo[1,5-a]pyridin-3-yl)propan-2-yl)-3-azabicyclo[3.1.1]heptane-6-carboxamide], the IC50 on CYP3A4, on CYP2C19 and on CYP1A2 was more than 10 µM each time.
